The IC50 is the concentration needed to halve the response being measured. Read a low IC50 as greater potency in that assay.

The values below come from ChEMBL document CHEMBL1132263, “Synthesis of caged peptides using caged lysine: application to the synthesis of caged AIP, a highly specific inhibitor of calmodulin-dependent protein kinase II” (Bioorg Med Chem Lett, 1999).

SMILES strings stand for the structures. Where a SMILES comes first, the peptide text is derived from it. The star is where a group is joined. X1 = O=C(OCc1ccccc1[N+](=O)[O-])*; Cbz = O=C(OCc1ccccc1)*

In this experiment the target is CaM kinase II (Homo sapiens, UniProt Q13557+Q13555+Q13554+Q9UQM7). The experiment in a line: Inhibitory activity of compound against CaMKII. Type of experiment: protein assay.
Consider `CC(C)C[C@H](NC(=O)[C@H](C)NC(=O)[C@H](CC(=O)O)NC(=O)[C@@H](NC(=O)[C@H](C)NC(=O)[C@H](CCC(=O)O)NC(=O)[C@H](CCC(N)=O)NC(=O)[C@H](CCCN=C(N)N)NC(=O)[C@H](CCCN=C(N)N)NC(=O)[C@H](CC(C)C)NC(=O)[C@H](C)NC(=O)[C@H](CCCCNC(=O)OCc1ccccc1[N+](=O)[O-])NC(=O)[C@@H](N)CCCCNC(=O)OCc1ccccc1[N+](=O)[O-])C(C)C)C(=O)O` (H-K(X1)K(X1)ALRRQEAVDAL-OH), for which the IC50 came to 1.2 µM. In other words, the single-digit micromolar range.
For the compound `CC(C)C[C@H](NC(=O)[C@H](C)NC(=O)[C@H](CC(=O)O)NC(=O)[C@@H](NC(=O)[C@H](C)NC(=O)[C@H](CCC(=O)O)NC(=O)[C@H](CCC(N)=O)NC(=O)[C@H](CCCN=C(N)N)NC(=O)[C@H](CCCN=C(N)N)NC(=O)[C@H](CC(C)C)NC(=O)[C@H](C)NC(=O)OCc1ccccc1)C(C)C)C(=O)O` (Cbz-ALRRQEAVDAL-OH), the IC50 came to 1 µM. This IC50 and that of the compound before are within 1.5-fold of each other.
In turn, `CC(C)C[C@H](NC(=O)[C@H](C)NC(=O)[C@H](CC(=O)O)NC(=O)[C@@H](NC(=O)[C@H](C)NC(=O)[C@H](CCC(=O)O)NC(=O)[C@H](CCC(N)=O)NC(=O)[C@H](CCCN=C(N)N)NC(=O)[C@H](CCCN=C(N)N)NC(=O)[C@H](CC(C)C)NC(=O)[C@H](C)NC(=O)[C@H](CCCCN)NC(=O)[C@@H](N)CCCCN)C(C)C)C(=O)O` (H-KKALRRQEAVDAL-OH) gave an IC50 of 0.032 µM.
`CC(C)C[C@H](NC(=O)[C@H](C)NC(=O)[C@H](CC(=O)O)NC(=O)[C@@H](NC(=O)[C@H](C)NC(=O)[C@H](CCC(=O)O)NC(=O)[C@H](CCC(N)=O)NC(=O)[C@H](CCCN=C(N)N)NC(=O)[C@H](CCCN=C(N)N)NC(=O)[C@H](CC(C)C)NC(=O)[C@H](C)NC(=O)[C@H](CCCCN)NC(=O)[C@@H](N)CCCCNC(=O)OCc1ccccc1[N+](=O)[O-])C(C)C)C(=O)O` (H-K(X1)KALRRQEAVDAL-OH): the IC50 turned out to be 0.036 µM.
